Assay results from patent US11028078B2 (The Johns Hopkins University, priority 2011, dated 2021).

How the values were obtained:
HUVEC = HUVEC proliferation assay ([3H]thymidine incorporation); format: cell-based, human; details: HUVEC; for Proliferation (IC50/IC50 Itra): IC50 of analog relative to IC50 of itraconazole; for Proliferation (EC50/IC50 Itra): footnote g: EC50 of analog relative to IC50 of itraconazole
Experimental: The activity of the analogs against HUVEC proliferation, an in vitro proxy for angiogenesis inhibition (Table 3) was analyzed. […]
Pooled HUVEC (Lonza) were grown in EGM-2 bullet kit media (Lonza) and used at passage eight or lower. The proliferation assays were conducted as previously described (Nacev, B.; Low, W. K.; Huang, Z.; Su, T.; Su, Z.; Alkuraya, H.; Kasuga, D.; Sun, W.; Trager, M.; Braun, M.; Fischer, G.; Zhang, K.; Liu, J. O., Acalcineurin-independent mechanism of angiogenesis inhibition by anon-immunosuppressive Cyclosporin Aanalog. J. Pharmacol. Exp. Ther. 2011, DOI:10.1124/jpet.111.18085).

[1] = tested on: MB cultures derived from Ptch−/+; p53−/− mice; assay: Medulloblastoma (MB) proliferation assay; format: cell-based, mouse; details: mouse medulloblastoma cultures, 96 h; relative to itraconazole
Source text: These cultures were derived from Ptch^−/+; p53^−/− mice that spontaneously develop medulloblastoma associated with ligand independent Hh pathway activation.
MB cultures were derived from mouse Ptch^−/+; p53^−/− MB grown as hind-flank allografts in nude mice (Harlan). Briefly, tumors were mechanically disrupted and made into single cell suspensions by two passages through a 70 μm nylon filter. Cells were pelleted by centrifugation and resuspended in PBS pH 7.4 twice. The cell suspension was then subjected to centrifugation at 1000×g for 25 min over a ficoll gradient. The viable cell layer formed at the ficoll boundary was then collected, suspended in PBS, and pelleted by centrifugation. The resulting pellet was then suspended and cultured as “neurospheres” in Neurobasal Media-A supplemented with retinoic acid deficient B-27 extract (NBMedia). Cells were cultured for three passages, with neurospheres disaggregated using Accumax (Innovative Cell Technologies) between passages.
Cultured MB neurospheres were disaggregated as described and 1×10^4 cells were seeded into wells of a 96-well assay plate in NBMedia and exposed to multiple analogue concentrations: Relative cell numbers following a 96-h incubation were quantified by CellTiter 96® AQueous One Solution Cell Proliferation Assay (Promega) per manufacturer's recommendations using a SpectraMax M2e spectrophotometer and SoftMax Pro software (Molecular Devices). Data was analyzed using Prism5 (GraphPad Software) and IC50 and IC90 values were determined from dose-response curves fitted to mean corrected absorbance normalized to control treatment.

VEGFR2 = VEGFR2 glycosylation in HUVEC (Western blot scoring); format: cell-based, human; details: VEGFR2 hypoglycosylation score in HUVEC, 2 μM, 24 h
Experimental: VEGFR2 hypoglycosylation was scored either robust (++), intermediate (+), or absent (−) (FIG. 6).
HUVEC were seeded at 5×10^4 per well of a 6-well plate in 3 mL of media. After an overnight recovery, the media was replaced with 2 mL fresh media and the analogs were added from 200× stocks in DMSO. Following a 24-h incubation, the media was aspirated and 2×SDS sample buffer was added to the cells which were incubated on ice for 10 min and then boiled for 10 min. […] Following three washes in TBS-T, the membrane was incubated with anti-rabbit horseradish peroxidase conjugated IgG (GE Healthcare) (1:5000-1:10000 dilution) in 1% BSA in TBS-T. The membranes were washed three times in TBS-T, incubated for 1-5 minutes with ECL substrate (Immobilon Wester, Milipore) and visualized (Kodak Image Staion 440 CF).

Gli1 transcript = assay: Quantification of Gli1 transcript by TaqMan analysis in MB cells (Hh pathway); format: cell-based, mouse; details: Gli1 transcript fold induction score; MB cells exposed 24 h at the IC90 for MB proliferation
Source text: Inhibitors of the Hh pathway are known to inhibit MB cell proliferation. However, MB cell proliferation is also affected by drugs with targets other than Hh signaling.
Following drug exposure, cells were washed in PBS and pelleted by centrifugation at 300×g. Cell pellets were lysed in Trizol reagent (Invitrogen). Total RNA was separated and collected in the aqueous phase following centrifugation of lysate in the presence of chloroform. Total RNA was ethanol precipitated and purified over RNeasy Mini Kit (Qiagen) filter columns per manufacturer's recommendations. Transcript levels were quantified using gene-specific TaqMan primer/probe sets and the StepOne Plus Real-Time PCR system (Applied Biosystems) on cDNA reverse transcribed using the QuantiTect Reverse Transcription Kit (Qiagen) per manufacturers' recommendations. Results were quantified using StepOne Plus software v2.1 (Applied Biosystems) and were expressed as fold induction relative to control samples using the A ΔCt (2^−ΔΔCt) method with actin as an internal control. The primer/probe set (Applied Biosystems) for TaqMan PCR for mouse Gli-1 was Mm00494645_m1, and for mouse actin was Mm00607939_s1.

SMILES	Proliferation (IC50/IC50 Itra) (HUVEC)	MB Proliferation (IC50/IC50 Itra) [1]	Glycosylation (2 μM dose) (VEGFR2)	Gli I Inhibition (IC90 Prolif. dose) (Gli1 transcript)	Proliferation (EC50/IC50 Itra) (HUVEC)
CC(C)CCn1ncn(-c2ccc(N3CCN(c4ccc(OC[C@@H]5CO[C@@](Cn6cncn6)(c6ccc(Cl)cc6Cl)O5)cc4)CC3)cc2)c1=O (relative stereo) [Compound 7i, cis-(2S,4R)-4-[4-[4-[4-[[2-(2,4-Dichlorophenyl)-2-(1H-1,2,4-triazol-1-ylmethyl)-1,3-dioxolan-4-yl]methoxy]phenyl]-lpiperazinyl]phenyl]-2,4-dihydro-2-(3-methylbutyl)-3H-1,2,4-triazol-3-one]	1.42	0.41	+	++ (≤0.15)	
CCCCCn1ncn(-c2ccc(N3CCN(c4ccc(OCC5COC(Cn6cncn6)(c6ccc(Cl)cc6Cl)O5)cc4)CC3)cc2)c1=O [Compound 7g, cis-(2S,4R)-4-[4-[4-[4-[[2-(2,4-Dichlorophenyl)-2-(1H-1,2,4-triazol-1-ylmethyl)-1,3-dioxolan-4-yl]methoxy]phenyl]-lpiperazinyl]phenyl]-2,4-dihydro-2-pentyl-3H-1,2,4-triazol-3-one]	1.09	0.66	−	++ (≤0.15)	
CCC(CC)n1ncn(-c2ccc(N3CCN(c4ccc(OCC5COC(Cn6cncn6)(c6ccc(Cl)cc6Cl)O5)cc4)CC3)cc2)c1=O [Compound 7j, cis-(2S,4R)-4-[4-[4-[4-[[2-(2,4-Dichlorophenyl)-2-(1H-1,2,4-triazol-1-ylmethyl)-1,3-dioxolan-4-yl]methoxy]phenyl]-lpiperazinyl]phenyl]-2,4-dihydro-2-(1-ethylpropyl)-3H-1,2,4-triazol-3-one]	1.10	0.54	+	++ (≤0.15)	
O=c1n(-c2ccc(N3CCN(c4ccc(OCC5COC(Cn6cncn6)(c6ccc(Cl)cc6Cl)O5)cc4)CC3)cc2)cnn1C1CCCCC1 [Compound 7k, cis-(2S,4R)-4-[4-[4-[4-[[2-(2,4-Dichlorophenyl)-2-(1H-1,2,4-triazol-1-ylmethyl)-1.3-dioxolan-4-yl]methoxy]phenyl]-lpiperazinyl]phenyl]-2,4-dihydro-2-(1-cyclohexyl)-3H-1,2,4-triazol-3-one]	0.44	0.37	++	− (≥0.45)	
O=c1n(-c2ccc(N3CCN(c4ccc(OCC5COC(Cn6cncn6)(c6ccc(Cl)cc6Cl)O5)cc4)CC3)cc2)cnn1CC1CCCC1 [Compound 7l, cis-(2S,4R)-4-[4-[4-[4-[[2-(2/l-Dichlorophenyl)-2-(1H-1,2,4-triazol-1-ylmethyl)-1,3-dioxolan-4-yl]methoxy]phenyl]-lpiperazinyl]phenyl]-2,4-dihydro-2-(1-cyclopentylmethyl)-3H-1,2,4-triazol-3-one]	0.50	0.50	++	+ (0.16 to 0.44)	
CCCCCCCCn1ncn(-c2ccc(N3CCN(c4ccc(OCC5COC(Cn6cncn6)(c6ccc(Cl)cc6Cl)O5)cc4)CC3)cc2)c1=O [Compound 7m, cis-(2S,4R)-4-[4-[4-[4-[[2-(2,4-Dichlorophenyl)-2-(1H-1,2,4-triazol-1-ylmethyl)-1,3-dioxolan-4-yl]methoxy]phenyl]-piperazinyl]phenyl]-2,4-dihydro-2-(n-octyl)-3H-1,2,4-triazol-3-one]		0.67	−	++ (≤0.15)	2.24^g
O=c1n(-c2ccc(N3CCN(c4ccc(OCC5COC(Cn6cncn6)(c6ccc(Cl)cc6Cl)O5)cc4)CC3)cc2)cnn1CCCCCCc1ccccc1 [Compound 7n, cis-(2S,4R)-4-[4-[4-[4-[[2-(2,4-Dichlorophenyl)-2-(1H-1,2,4-triazol-1-ylmethyl)-1,3-dioxolan-4-yl]methoxy]phenyl]-lpiperazinyl]phenyl]-2,4-dihydro-2-(6-phenylhexyl)-3H-1,2,4-triazol-3-one]		0.69	−	++ (≤0.15)	1.45^g
CCC#CCCn1ncn(-c2ccc(N3CCN(c4ccc(OCC5COC(Cn6cncn6)(c6ccc(Cl)cc6Cl)O5)cc4)CC3)cc2)c1=O [Compound 7o, cis-(2S,4R)-4-[4-[4-[4-[[2-(2,4-Dichlorophenyl)-2-(1H-1,2,4-triazol-1-ylmethyl)-1,3-dioxolan-4-yl]methoxy]phenyl]-lpiperazinyl]phenyl]-2,4-dihydro-2-(hex-3-ynyl)-3H-1,2,4-triazol-3-one]	1.09	1.07	−	++ (≤0.15)	
[N-]=[N+]=NCCCCCCn1ncn(-c2ccc(N3CCN(c4ccc(OCC5COC(Cn6cncn6)(c6ccc(Cl)cc6Cl)O5)cc4)CC3)cc2)c1=O [Compound 7p, cis-(2S,4R)-4-[4-[4-[4-[[2-(2,4-Dichlorophenyl)-2-(1H-1,2,4-triazol-1-ylmethyl)-1,3-dioxolan-4-yl]methoxy]phenyl]-lpiperazinyl]phenyl]-2,4-dihydro-2-(6-azidohexyl)-3H-1,2,4-triazol-3-one]	0.30	0.70	+	+ (0.16 to 0.44)	
CC/C=C/CCn1ncn(-c2ccc(N3CCN(c4ccc(OCC5COC(Cn6cncn6)(c6ccc(Cl)cc6Cl)O5)cc4)CC3)cc2)c1=O [Compound 7s, cis-(2S,4R)-4-[4-[4-[4-[[2-(2,4-Dichlorophenyl)-2-(1H-1,2,4-triazol-1-ylmethyl)-1,3-dioxolan-4-yl]methoxy]phenyl]-lpiperazinyl]phenyl]-2,4-dihydro-2-((E)-hex-3-enyl)-3H-1,2,4-triazol-3-one]	1.57	0.63	−	++ (≤0.15)	
CC/C=C\CCn1ncn(-c2ccc(N3CCN(c4ccc(OCC5COC(Cn6cncn6)(c6ccc(Cl)cc6Cl)O5)cc4)CC3)cc2)c1=O [Compound 7t, cis-(2S,4R)-4-[4-[4-[4-[[2-(2,4-Dichlorophenyl)-2-(1H-1,2,4-triazol-1-ylmethyl)-13-dioxolan-4-yl]methoxy]phenyl]-lpiperazinyl]phenyl]-2,4-dihydro-2-((Z)-hex-3-enyl)-3H-1,2,4-triazol-3-one]	0.73	0.94	−	++ (≤0.15)	
N#CCCCCCn1ncn(-c2ccc(N3CCN(c4ccc(OCC5COC(Cn6cncn6)(c6ccc(Cl)cc6Cl)O5)cc4)CC3)cc2)c1=O [Compound 7u, cis-(2S,4R)-4-[4-[4-[4-[[2-(2,4-Dichlorophenyl)-2-(1H-1,2,4-triazol-1-ylmethyl)-1,3-dioxolan-4-yl]methoxy]phenyl]-]piperazinyl]phenyl]-2,4-dihydro-2-(5-cyanopentyl)-3H-1,2,4-triazol-3-one]	0.18	0.84	++	+ (0.16 to 0.44)	
